Our source for the MIC90 values is patent US20220127297A1, “Novel Antibacterial 3"-Derivatives Of 4,6-Disubstituted 2,5-Dideoxystreptamine Aminoglycoside Antibiotics” (AGILeBiotics B.V., priority 2018, published 2022).

Read-outs that look alike come from different tables or passages of the source.

What all share (test): MIC determination at University Medical Center Groningen
Type in all cases: cell-based

The subject of experiment [1] is clinical isolates of Pseudomonas aeruginosa (and ATCC 27853). The text has this:
(§1) 3.4.3 MIC Determination at University Medical Center Groningen (the Netherlands)
(§2) Tested reference compounds. Amikacin sulfate (Cat. No. 01693, Chem-Impex), Gentamicin sulfate (Cat. No. G4918, Sigma Aldrich).
(§3) Bacterial strains/isolates. Pseudomonas aeruginosa ATCC 27853, Escherichia coli ATCC 25922, Klebsiella pneumonia ATCC43816, Acinetobacter baumannii ATCC17978, 9 clinical isolates of Klebsiella pneumonia (origin: 4 unknown, 3 urine, 1 sputum, 1 catheter tip), 7 clinical isolates of Pseudomonas aeruginosa (origin: 3 unknown, 1 wound, 1 catheter, 1 faeces, bronco alveolar liquid=BAL), 8 clinical isolates of Escherichia coli (origin: 2 bile liquid, 2 rectum, 1 throat, 2 blood culture, 1 sputum), 4 clinical isolates of Acinetobacter baumannii (origin: 2 blood culture, 1 sputum, 1 bone).
(§4) Culture media and equipment. As indicated by EUCAST guidelines (European Committee on Antimicrobial Susceptibility Testing (EUCAST); Media preparation for EUCAST disk diffusion testing and for determination of MIC values by the broth microdilution method; Version 5.0, 2017), Mueller Hinton Broth, CM0405, (Oxoid) was used for the broth micro-dilutions; and Mueller Hinton Agar, CM0337, (Oxoid) was used for the plating on agar. The testing assays were conducted in 96-well plates, with U-bottom shape (Greiner Bio-one); All bacteria strains/isolates used were handled in a Laminar flow, Clean Air (Baker). A CO2 incubator commercialized by Sanyo was used. Finally, spectrophotometer measurements were conducted using a Synergy 2 Multi-detection Microplate Reader (BioTek).
(§5) Compound preparation. The compounds were weighed and dissolved into MilliQ water. These concentrated stock aliquots were then further diluted to reach the desired testing concentrations. Serial dilutions were made in order to achieve the ten desired final concentrations for the tested compounds, that ranged between 64-0.125 μg/mL. The concentrations were calculated in respect to the 150 μL of final volume used for each of the 96-wells. Of these dilutions, 100 μL was added in each testing well of a sterile 96-well plate. All compound dilutions were plated in triplicate, while duplicates were used for the two reference antibiotics.
(§6) Inoculum preparation. The clinical isolates were revived from Luria Bertani medium storage at −80° C. by plating them overnight on MH agar plates. The following day, a few colonies were picked and inoculated in small glass bottles containing 10 mL MH broth. Growth was subsequently allowed for approx. 3 hours, at 35° C. with 250 rpm shaking, until the isolates reached late logarithmic growth phase. At this point culture solutions were prepared with an OD600 (optical density measured at 600 nm; measured using Synergy 2 Multi-detection Microplate Reader; BioTek) of 0.05. […] 50 μL of culture suspension was added to each of the wells of the 96 well plate previously loaded with the desired antibiotic/medium solution, reaching a final total volume of 150 μL per well. As controls, blanks of the MH medium and of culture were added to the 96-well plate. Plates were incubated in a plate incubator in static conditions at 35° C. for 18 hours.
(§7) MIC determination. After the incubation time, the MIC value was determined by visual inspection of bacterial growth within 96-well plates. The first column in which there was no visible growth of bacteria was determined as the MIC90 value for the compound tested in that particular row. Additionally, spectrophotometer readouts at 600 nm were recorded for each well.
(§8) MIC90. The MIC90 of a compound was assigned at which no visible growth of bacteria was determined.

For experiment [2], the system named is clinical isolates of Escherichia coli (and ATCC 25922).
Text: as §1, §2, §3, §4, §5, §6, §7, §8

Experiment [3] concerns clinical isolates of Klebsiella pneumonia (and ATCC43816). As to conditions: Klebsiella pneumoniae.
Text: as §1, §2, §3, §4, §5, §6, §7, §8

Regarding `N=C(N)NC1C(O)[C@@H](CO)OC(OC2C(F)[C@H](O[C@H]3OC(CN)[C@@H](O)CC3N)C(N)C[C@H]2NC(=O)[C@@H](O)CCN)[C@@H]1O` (stereo partly shown) [ABX5006, Tobra-AHB-F-Gua], the MIC90 is 0.25 µg/mL in experiment [1] (ATCC27853, P. aeruginosa ATCC27853 strain, broth micro-dilution (CLSI), read-out: MIC 90); 2 to 4 µg/mL in experiment [1] (ATCC27853, P. aeruginosa clinical isolate PA-179, Multidrug-resistant, origin Wound, read-out: MIC 90); 0.5 to 1 µg/mL in experiment [1] (ATCC27853, P. aeruginosa clinical isolate PA-195, Multidrug-resistant, origin Catheter, read-out: MIC 90); 1 to 2 µg/mL in experiment [1] (ATCC27853, P. aeruginosa clinical isolate PA-198, Multidrug-resistant, origin unkown); 0.25 to 0.5 µg/mL in experiment [1] (ATCC27853, P. aeruginosa clinical isolate PA-202, Multidrug-resistant, origin Faeces, read-out: MIC 90); 8 µg/mL in experiment [1] (ATCC 27853 / BAL, P. aeruginosa clinical isolate P4-171, Pandrug-resistant, origin BAL, read-out: MIC 90). For the same molecule, the MIC90 in experiment [2] (ATCC25922, E. coli ATCC25922 strain, broth micro-dilution (CLSI)) stood at 0.5 µg/mL; in experiment [2] (ATCC25922, E. coli clinical isolate EC-11, Multidrug-resistant, origin Throat), 0.5 µg/mL; in experiment [2] (ATCC25922, E. coli clinical isolate EC-12, Multidrug-resistant, origin Rectum), 2 µg/mL; in experiment [2] (ATCC25922, E. coli clinical isolate EC-22, Multidrug-resistant, origin Sputurn) it was 4 µg/mL; in experiment [2] (ATCC25922, E. coli clinical isolate EC-25, Multidrug-resistant, origin Bile liquid), 4 µg/mL; in experiment [2] (ATCC25922, E. coli clinical isolate EC-26, Multidrug-resistant, origin Bile liquid) it was 4 µg/mL. For the same molecule, the MIC90 in experiment [2] (ATCC25922, E. coli clinical isolate EC-40, Multidrug-resistant, origin Blood culture) was determined as 2 µg/mL; in experiment [2] (ATCC25922, E. coli clinical isolate EC-43, Multidrug-resistant, origin Rectum) it was 4 µg/mL; in experiment [2] (ATCC25922, E. coli clinical isolate EC-46, suceptible, origin Blood culture) it was 2 µg/mL; in experiment [3] (ATCC43816, K. pneumoniae ATCC43816 strain, broth micro-dilution (CLSI), read-out: MIC 90), 0.25 µg/mL; in experiment [3] (ATCC43816, K. pneumoniae clinical isolate KP-107, KPC/Pandrug-resistant, origin Urine, read-out: MIC 90) it was 8 µg/mL; in experiment [3] (ATCC43816, K. pneumoniae clinical isolate KP-108, KPC/Pandrug-resistant, origin Urine, read-out: MIC 90), 8 µg/mL. For the same molecule, the MIC90 in experiment [3] (ATCC43816, K. pneumoniae clinical isolate KP-109, KPC/Pandrug-resistant, origin Catheter tip, read-out: MIC 90) amounted to 16 µg/mL; in experiment [3] (ATCC43816, K. pneumoniae clinical isolate KP-110, KPC/Pandrug-resistant, origin Sputum, read-out: MIC 90), 8 µg/mL; in experiment [3] (ATCC43816, K. pneumoniae clinical isolate KP-111, KPC/Pandrug-resistant, origin Urine, read-out: MIC 90), 8 µg/mL; in experiment [3] (ATCC43816, K. pneumoniae clinical isolate KP-113, KPC/Pandrug-resistant, origin unkown), 4 µg/mL.
